For data set [1], the system named is SARS-CoV-2 isolate BetaCov/Belgium/GHB-03021/2020. As to the kind of experiment: microbe, parasite or virus in culture. The class given is cell-based. As to conditions: 1.25 μM (non-toxic compound concentration), n4; for inhibition at 1.25 µM: Severe acute respiratory syndrome coronavirus 2.
In data set [2] the test system is p38, JNK1, ERK1/2, PKC, or Src-like kinases. As to conditions: cited from earlier work.
For data set [3], the system named is cell signaling molecules (4E-BP1, p70 S6 kinase, Akt, PTPN14, p53, PD-L1). Description: Western blot of cell signaling molecules in CaSki cells. As to conditions: CaSki, 6 h; order 10 μM VSP035, Torin 1, Torin 2, rapamycin, 5 μM VSP035, CGP 57380.
For the next data set, the target named is Plk3 (Homo sapiens, UniProt Q9H4B4). As to conditions: cited from earlier work.
Sequence of Plk3 (Q9H4B4 whole entry, species assumed): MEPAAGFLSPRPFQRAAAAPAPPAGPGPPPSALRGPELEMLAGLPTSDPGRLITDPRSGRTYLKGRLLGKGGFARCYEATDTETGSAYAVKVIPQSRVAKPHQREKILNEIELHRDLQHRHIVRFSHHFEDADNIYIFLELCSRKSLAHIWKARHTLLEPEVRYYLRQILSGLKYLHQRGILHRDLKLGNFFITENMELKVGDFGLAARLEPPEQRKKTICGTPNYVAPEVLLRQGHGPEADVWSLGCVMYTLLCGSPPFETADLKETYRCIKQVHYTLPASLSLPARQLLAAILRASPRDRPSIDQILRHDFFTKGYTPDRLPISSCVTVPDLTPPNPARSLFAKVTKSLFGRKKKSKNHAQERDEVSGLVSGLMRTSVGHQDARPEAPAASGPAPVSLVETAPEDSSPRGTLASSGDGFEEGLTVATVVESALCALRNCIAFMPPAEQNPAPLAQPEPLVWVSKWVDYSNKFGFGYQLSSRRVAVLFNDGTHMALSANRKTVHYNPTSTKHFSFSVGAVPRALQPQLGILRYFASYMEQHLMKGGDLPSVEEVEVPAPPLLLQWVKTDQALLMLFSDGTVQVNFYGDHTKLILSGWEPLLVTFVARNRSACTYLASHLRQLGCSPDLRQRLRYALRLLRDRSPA
Data set [4] is described as follows: Pharmacokinetics of VSP034 and VSP035 after oral administration of a liposomal formulation. As to conditions: for AUC(0-inf) / CL/F / Cmax / MRT inf / Tmax / Vd/F / half-life: female, Sprague-Dawley, rat, in vivo, po, 100 mg/kg; for AUC(0-inf): AUC0-inf; for MRT inf: MRT0-inf; for Vd/F: Vz/F. It counts as in vivo, female Sprague-Dawley rats. The protocol:
The pharmacokinetic parameters of VSP034 and VSP035 encapsulated as liposomal formulation were assessed after the administration of a single 100 mg/kg dose by oral gavage to 6 female Sprague-Dawley rats weighting 250 grams (+25 g). The animals were randomized into two experimental groups (Groups 1 and 2), each composed of 3 rats. Rats belonging to group 1 were administered with VSP034 and rats belonging to group 2 were administered with VSP035. Blood was collected at baseline and 15 min, 30 min, 1, 2, 4, 6, 8, and 24 hours after the oral gavage. The rats were sacrificed 24 hours after the dosing. Blood was collected at each timepoint from the caudal vein, with the exception of the last collection (24 hours), which was performed by intracardiac puncture at the moment of sacrifice under isoflurane anesthesia. The animals were weighted immediately before the dosing to assess the proper dose and carefully monitored during the experiment. They were kept in standard housing conditions, meeting the legal requirements for the correct housing of rodents for a period not exceeding the maximum experimental endpoints. Ad libitum access to water and food was allowed. […] Humane endpoints have not been reached. The pharmacokinetic analysis was performed using Microsoft Excel plug-in PK Solver. Pharmacokinetic parameters of two compounds are compared with the software GraphPad Prism ver. 8.0 by Student's t test for unpaired data. A p value <0.05 is considered statistically significant.
Analytical method: Compound analysis was performed following the bioanalytical method as in Test 13. In this study, carbamazepine was used as an internal standard.
Pharmacokinetic analysis: A pharmacokinetic analysis of VSP034 and VSP035 was performed using the Excel plug-in 2.0 PK Solver. The results have been fitted according to a non-compartmental modelling following extravascular administration. Concentration-vs-time curves for VSP034 and VSP035.
The main pharmacokinetic parameters (half-life, t1/2; time to maximum plasma concentration, Tmax; maximum plasma concentration, Cmax, AUC Extrapolated to Infinity, AUC0-inf; mean residence time, MRT; Apparent Volume of Distribution During Terminal Phase, Vz/F; and apparent oral clearance, CL/F) were calculated from the coefficients and exponents of the best-fits by using standard formulae.

Data set [5] deals with CaSki (ATCC CRM-CRL-1550). Description: Monolayer assay using Sulphorhodamine B (SRB) staining, CaSki. As to conditions: Homo sapiens, Ca-Ski, read-out: EC50 mean [nM]. The class given is cell-based. The protocol: Various cell culture cells grown as monolayers are harvested from exponential growing cultures after treatment with various OC compounds at different concentrations. For this depending on the cell line, 10.000 to 30.000 cells were plated in 96-well flat-bottom microtiter plates. After a 24 h recovery period to allow cells to resume exponential growth, supernatants are discarded and 100 μl of culture medium (eight control wells/plate) or culture medium with the test compound are added by a liquid handling robotic system (Microlab® Starlet, Hamilton) and treatment continued for 72 hrs. Compounds are applied at 9 concentrations and eight wells/concentration). At least three independent experiments are performed. For SRB staining, cells are fixed with SRB01 (Tab. 5) for 1 h at 4° C. (final concentration of TCA=10%) washed with a plate washer (Hydroflex, Tecan©) for five times with H2O; and stained with 100 μl of SRB02 at room temperature for 10 min following 4 washes in SRB03 and finally 100 μl of developer solution SRB04 for 5 minutes with shaking. Optical density is assessed using a plate-reader (Sunrise, Tecan©) at 540 nm.
Concentrations required for half maximal response of the compound for cell growth inhibition (EC50) is calculated by non-linear regression (log[conc. of inhibitor] versus response (% T/C)) using the analysis software GraphPad Prism®, Prism 5 for windows, version 5.01 (GraphPad Software Inc., CA).
(The SRB assay estimates cell density from bound dye.)

Data set [6] relates to patient derived SARS-2 Coronavirus (COVID19). Description: Inhibition of Sars-CoV2 replication by RNA qPCR analysis in Vero E6 cells. The class given is cell-based, SARS-CoV-2. As to conditions: 7.5 μM, supernatants 3 days after infection, n3. The protocol:
Vero E6 cells were pre-incubated with the compounds at a concentration of 7.5 μM. The cells were infected with a patient derived SARS-2 Coronavirus (COVID19). Cellular supernatants were collected 3 days after infection and centrifuged at 2000 rpm for 5 min to remove detached cells. Viral RNAs were extracted using a MagNA Pure 24 system (Roche, Germany). SARS-CoV-2 RNA genomes were quantified with the TIB MOLBIOL LightMix Assay SARS-CoV-2 RdRP RTqPCR assay kit with RNA Process Control PCR Kit (Roche). The PCR reaction setup was performed using a BRAND LHS laboratory robot to ensure quality. The amplification was performed with a LightCycler 480 II (Roche). Method used in FIG. 10.
SARV-CoV-2 antiviral activity by of VSP034 and VSP035 (n3; number of repeat of the assay at each condition). The results are shown in for DMSO (1), 7.5 μM VSP034 (2) and 7.5 μM VSP035 (3), y axis logarithmic scale. […] (FIG. 9)
(In general: In qPCR the cycle at which signal appears reflects the starting amount.)

The structures appear in SMILES notation.

For `Nc1ncnc2n[nH]c(Nc3ccc(F)cc3)c12` [CGP57380, reference compound], the % Inhibition (as a rule, the share of the control response that was lost under treatment) in data set [1] was 17.71%. Besides, the “inhibitory activity against p38, JNK1, ERK1/2, PKC, or Src-like kinases” value in data set [2] was “μM, but has no inhibitory activity against”. For the same compound, the “Phosphorylation of 4E-BP1 on Ser65 and the p70S6 kinase on Thr389” value in data set [3] was “inhibited or strongly reduced”.
Turning to `COc1cc(OC)c(/C=C/S(=O)(=O)Cc2ccc(OC)c(NCC(=O)O)c2)c(OC)c1` [ON-01910.Na, reference compound], 1.25 µM produced 51.4% inhibition in data set [1]. Also, the “activity to Plk3” value on Plk3 is “against Plk2 and no activity to Plk3”.
Consider `CN1CCC(CN2C(=O)c3ccccc3[C@@H](C(=O)Nc3cccc(N4CCN(C)CC4)c3)[C@@H]2c2ccc(C(F)(F)F)cc2)CC1` [VSP034, (3R,4R)-N-[3-(4-methylpiperazin-1-yl)phenyl]-2-[(1-methylpiperidin-4-yl)methyl]-1-oxo-3-[4-(trifluoromethyl)phenyl]-1,2,3,4-tetrahydroisoquinoline-4-carboxamide], for which, in data set [4] (Mean), the AUC(0-inf) (as a rule, total exposure, with the tail of the curve extrapolated) amounted to 529 ng·h/mL; the CL/F (commonly clearance divided by bioavailability, as obtained after extravascular dosing) is 3.42 mL/min/kg; the peak level (Cmax) was 89 ng/mL; the mean residence time MRT inf (in general, a mean duration of stay, worked out from the concentration-time curve) was 6.72 h. In data set [4] (Mean), the time of peak concentration (Tmax) (in general, the time from dosing to the highest level) worked out at 1.17 h and the Vd/F (in general, the apparent distribution volume after extravascular dosing) is 1.29 L/kg. Besides, in data set [4] (Median), the AUC(0-inf) worked out at 613 ng·h/mL; the apparent clearance (CL/F) is 2.72 mL/min/kg; the Cmax – broadly, the maximum level reached in the sampled fluid or tissue – turned out to be 87.9 ng/mL; the MRT inf is 6.77 h. In data set [4] (Median), the time of peak concentration (Tmax) is 1 h and the Vd/F is 0.994 L/kg. Further, the half-life (as a rule, how long it takes for the measured level to halve) in data set [4] (t1/2, Mean) was 4.33 h. For the same compound, the half-life in data set [4] (t1/2, Median) was 4.22 h. Further, the “condition of the rats after administration of the liposomal formulation” value in data set [4] (single 100 mg/kg oral gavage, observed 24 hours) is “did not show any sign of suffering or abnormal behavior”. Moreover, the half-maximal effective concentration (EC50) (in general, the concentration at which the effect is half-maximal) in data set [5] was 3590 nM. Besides, in data set [6], the “reduction of virus load as determined by the PCR assay” value is recorded as “one order of magnitude”. In addition, the inhibition – broadly, the relative decrease from the control value, in per cent – at 1.25 µM in data set [1] was determined as 45.2%.

The values are drawn from patent US12630523B2, “Isoquinoline derivatives for use as antiviral and antitumour agents” (priority 2021, dated 2026).
